The results in this text go back to patent US10004747B2, “Combination therapy” (Boehringer Ingelheim International GmbH, priority 2010, dated 2018).

Series [1] in a line: Pharmacokinetics of BI 1356 after multiple oral doses once daily for 12 days in patients with type 2 diabetes. The note with it: for RA, AUC (accumulation ratio) / RA, Cmax (accumulation ratio): 12 days, type 2 diabetes patients, gMean.
A short description of series [2]: Linagliptin alone or with low-dose exenatide for 28 days: plasma parameters and body composition in DIO rats.
Where [3] appears, read: Day 29, DIO rats, vehicle pump + Linagliptin 3 mg/kg PO, mean ± SEM.

“Also recorded” adds a separate entry of the source. Marks after values point to notes of the source that are not given here.

Regarding `CC#CCn1c(N2CCC[C@@H](N)C2)nc2c1c(=O)n(Cc1nc(C)c3ccccc3n1)c(=O)n2C` [BI 1356], in series [1] (1 mg once daily oral), the “RA, AUC (accumulation ratio)” value is 2.03 and the “RA, Cmax (accumulation ratio)” value is 1.44. Further, in series [1] (2.5 mg once daily oral), the “RA, AUC (accumulation ratio)” value is given as 1.37 and the “RA, Cmax (accumulation ratio)” value stood at 1.25. Also, in series [1] (5 mg once daily oral), the “RA, AUC (accumulation ratio)” value stood at 1.33 and the “RA, Cmax (accumulation ratio)” value worked out at 1.33. In series [1] (10 mg once daily oral), the “RA, AUC (accumulation ratio)” value turned out to be 1.18 and the “RA, Cmax (accumulation ratio)” value is 1.40. For the same compound, in series [1] (therapeutic oral dose levels), the “excretion via the kidney” value is < 7 % of the administered oral dose and the “main route of excretion” value is “mainly excreted via the liver; also recorded: primarily excreted unchanged via the bile”. Moreover, in series [2] (setting [3]), the “Carcass Fat” value was 151.1 ± 7.3 g, the “Carcass Protein” value was determined as 63.8 ± 4.0 g, the “Carcass Water” value was 212.6 ± 3.4 g and the “GLP-1 (pM)” value was 5.72 ± 0.9^b pM. Moreover, in series [2] (setting [3]), the “Glucose” value was 8.72 ± 0.22 mM, the “Insulin” value amounted to 1.82 ± 0.36 ng/mL and the “Leptin” value amounted to 23.9 ± 2.5 ng/mL. The “augmentation of the effect of a low dose of exenatide” value in series [2] (linagliptin 3 mg/kg po in combination with exenatide 3 μg/kg/day sc, 28 days, DIO rats) is reported as “does not augment the effect of a low dose of exenatide”. In addition, the “effect on body weight, daily food intake, plasma glucose, insulin or carcass fat compared to vehicle-treated controls” value in series [2] (rat, in vivo) is recorded as “no effect”. For the same compound, the “body weight from day 11 after exenatide treatment” value (BI 1356 3 mg/kg po from Day 11 after exenatide 30 μg/kg/day Day 1-10, DIO rats, vs vehicle control) was “stabilize their body weight at the new weight level”. In addition, the “less fat put on than vehicle-treated counterparts during exenatide withdrawal” value (linagliptin 3 mg/kg po after exenatide withdrawal, DIO rats, p=0.07) came to 10.6%. Also, the “body fat weight regain after GLP-1R agonist cessation” value (replacement of exenatide 30 μg/kg/day (Day 1-10) with linagliptin 3 mg/kg po from Day 11, DIO rats) is “prevents body fat weight regain”.
